Experimental data: PubChem BioAssay AID2060610 (Molecular Pharmacology Branch, DTP, NCI, 2025)
pIC50: −log10 of the molar value. “And” between values parts separate entries of the source, which are not always exact repeats. Identical values can stand only once.

Test system: 616215-338-R-J1-PDC complex spheroids, viability % test/control
Assay: Anticancer human tumor 616215-338-R-J1-PDC patient-derived colon adenocarcinoma cell line growth inhibition [CLK]
Details: for viability, T/C: stronger effect = lower value
In short: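 Patient-derived tumor cells grown as complex spheroids with HUVEC endothelial cells and mesenchymal stem cells, treated with drug combinations. Concentrations descend in half-log steps from near clinical Cmax, or from 10 microM if Cmax unknown.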

[1] = curve of first compound, second compound 0.0316 µM
[2] = curve of first compound, second compound 0.1 µM
[3] = curve of first compound, second compound 0.316 µM
[4] = curve of first compound, second compound 1 µM
[5] = curve of first compound, second compound 3.16 µM
[6] = curve of first compound, second compound 10 µM
[7] = second compound 0.0316 µM, first compound 0.0316 µM
[8] = second compound 0.0316 µM, first compound 0.1 µM
[9] = second compound 0.0316 µM, first compound 0.316 µM
[10] = second compound 0.0316 µM, first compound 1 µM
[11] = second compound 0.0316 µM, first compound 3.16 µM
[12] = second compound 0.0316 µM, first compound 10 µM
[13] = second compound 0.1 µM, first compound 0.0316 µM
[14] = second compound 0.1 µM, first compound 0.1 µM
[15] = second compound 0.1 µM, first compound 0.316 µM
[16] = second compound 0.1 µM, first compound 1 µM
[17] = second compound 0.1 µM, first compound 3.16 µM
[18] = second compound 0.1 µM, first compound 10 µM
[19] = second compound 0.316 µM, first compound 0.0316 µM
[20] = second compound 0.316 µM, first compound 0.1 µM
[21] = second compound 0.316 µM, first compound 0.316 µM
[22] = second compound 0.316 µM, first compound 1 µM
[23] = second compound 0.316 µM, first compound 3.16 µM
[24] = second compound 0.316 µM, first compound 10 µM
[25] = second compound 1 µM, first compound 0.0316 µM
[26] = second compound 1 µM, first compound 0.1 µM
[27] = second compound 1 µM, first compound 0.316 µM
[28] = second compound 1 µM, first compound 1 µM
[29] = second compound 1 µM, first compound 3.16 µM
[30] = second compound 1 µM, first compound 10 µM
[31] = second compound 3.16 µM, first compound 0.0316 µM
[32] = second compound 3.16 µM, first compound 0.1 µM
[33] = second compound 3.16 µM, first compound 0.316 µM
[34] = second compound 3.16 µM, first compound 1 µM
[35] = second compound 3.16 µM, first compound 3.16 µM
[36] = second compound 3.16 µM, first compound 10 µM
[37] = second compound 10 µM, first compound 0.0316 µM
[38] = second compound 10 µM, first compound 0.1 µM
[39] = second compound 10 µM, first compound 0.316 µM
[40] = second compound 10 µM, first compound 1 µM
[41] = second compound 10 µM, first compound 3.16 µM
[42] = second compound 10 µM, first compound 10 µM
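Further: spheroids exposed to agents for 7 days.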
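Wherever viability, T/C is given: 100% = DMSO vehicle wells.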

Compound: CC1COCCN1c1cc(C2(S(C)(=N)=O)CC2)nc(-c2ccnc3[nH]ccc23)n1 (stereo not drawn) + CN1CCN(c2cc(C(=O)Nc3cc4cc(-c5cnn(C)c5)ccc4cn3)ccn2)CC1
- pIC50 [1]: < 5.00
- pIC50 [2]: 5.30
- pIC50 [3]: > 7.50
- pIC50 [4]: > 7.50
- pIC50 [5]: > 7.50
- pIC50 [6]: > 7.50
- viability, T/C [7]: 98.6%
- viability, T/C [8]: 99.8%
- viability, T/C [9]: 95.3%
- viability, T/C [10]: 105%
- viability, T/C [11]: 102%
- viability, T/C [12]: 54.7%
- viability, T/C [13]: 117%
- viability, T/C [14]: 106%
- viability, T/C [15]: 96.6%
- viability, T/C [16]: 102%
- viability, T/C [17]: 60.5%
- viability, T/C [18]: 33.5%
- viability, T/C [19]: 34.7%
- viability, T/C [20]: 29.4%
- viability, T/C [21]: 28.4%
- viability, T/C [22]: 21.3%
- viability, T/C [23]: 23.9%
- viability, T/C [24]: 15.4%
- viability, T/C [25]: 0.14%
- viability, T/C [26]: 2.28%
- viability, T/C [27]: 2.21%
- viability, T/C [28]: 0.15%
- viability, T/C [29]: 0.1%
- viability, T/C [30]: 2.62%
- viability, T/C [31]: 0.14%
- viability, T/C [32]: 0.12%
- viability, T/C [33]: 0.15%
- viability, T/C [34]: 0.14%
- viability, T/C [35]: 2.05%
- viability, T/C [36]: 3.08%
- viability, T/C [37]: 0.16%
- viability, T/C [38]: 0.15%
- viability, T/C [39]: 0.21%
- viability, T/C [40]: 0.23%
- viability, T/C [41]: 0.23%
- viability, T/C [42]: 0.24%

Compound: C=CC(=O)N1CCN(c2nc(=O)n(-c3c(C)ccnc3C(C)C)c3nc(-c4c(O)cccc4F)c(F)cc23)C(C)C1 (stereo not drawn) + CN1CCN(c2cc(C(=O)Nc3cc4cc(-c5cnn(C)c5)ccc4cn3)ccn2)CC1
- pIC50 [1]: < 5.00
- pIC50 [2]: < 5.00
- pIC50 [3]: > 7.50
- pIC50 [4]: > 7.50
- pIC50 [5]: > 7.50
- pIC50 [6]: > 7.50
- viability, T/C [7]: 104%
- viability, T/C [8]: 116%
- viability, T/C [9]: 107%
- viability, T/C [10]: 104%
- viability, T/C [11]: 111%
- viability, T/C [12]: 102%
- viability, T/C [13]: 116%
- viability, T/C [14]: 113%
- viability, T/C [15]: 107%
- viability, T/C [16]: 114%
- viability, T/C [17]: 115%
- viability, T/C [18]: 110%
- viability, T/C [19]: 34.9%
- viability, T/C [20]: 43%
- viability, T/C [21]: 43.7%
- viability, T/C [22]: 50.9%
- viability, T/C [23]: 49.9%
- viability, T/C [24]: 28.1%
- viability, T/C [25]: 0.2%
- viability, T/C [26]: 0.5%
- viability, T/C [27]: 0.21%
- viability, T/C [28]: 0.2%
- viability, T/C [29]: 0.15%
- viability, T/C [30]: 0.24%
- viability, T/C [31]: 0.13%
- viability, T/C [32]: 1.31%
- viability, T/C [33]: 0.14%
- viability, T/C [34]: 0.14%
- viability, T/C [35]: 0.13%
- viability, T/C [36]: 1.21%
- viability, T/C [37]: 0.17%
- viability, T/C [38]: 0.19%
- viability, T/C [39]: 0.51%
- viability, T/C [40]: 0.2%
- viability, T/C [41]: 0.2%
- viability, T/C [42]: 0.17%

Compound: CN1CCN(c2cc(C(=O)Nc3cc4cc(-c5cnn(C)c5)ccc4cn3)ccn2)CC1
- viability, T/C (compound 0.0316 µM): 99.7% [middle of 12 runs]
- viability, T/C (compound 0.1 µM): 107% [middle of 12 runs]
- viability, T/C (compound 0.316 µM): 34.7% [middle of 12 runs]
- viability, T/C (compound 1 µM): 1.63% [middle of 11 runs]
- viability, T/C (compound 3.16 µM): 1% [middle of 11 runs]
- viability, T/C (compound 10 µM): 0.25% [middle of 10 runs]
- IC50 (compound alone, run of 07/31/2023): 238 nM [middle of 11 runs]

Compound: CC1COCCN1c1cc(C2(S(C)(=N)=O)CC2)nc(-c2ccnc3[nH]ccc23)n1 (stereo not drawn)
- viability, T/C (compound 0.0316 µM): 94.9% and 102%
- viability, T/C (compound 0.1 µM): 107% and 96.5%
- viability, T/C (compound 0.316 µM): 97.7% and 96.1%
- viability, T/C (compound 1 µM): 99.8% and 94.2%
- viability, T/C (compound 3.16 µM): 105% and 106%
- viability, T/C (compound 10 µM): 78.6% and 92.2%
- pIC50 (curve of compound): < 5.00
